Two compounds from patent US8277810B2, “Antagonist anti-CD40 antibodies” (Novartis Vaccines & Diagnostics, Inc., priority 2003, dated 2012) can be followed below.

The test system of assay [1] is IM-9 tumor cells. Description: IM-9 multiple myeloma xenograft, unstaged conditional survival model. Particulars: mouse, in vivo. The arrangement: species or system SCID mice. On the procedure: SCID mice were inoculated subcutaneously with IM-9 tumor cells (a human multiple myeloma cell line expressing both CD40 and CD20) in 50% […]™ at 5×10^6 cells per mouse. In unstaged models, treatment was initiated one day after tumor implantation. In staged models, treatment was initiated when tumor volume reached 150-200 mm^3. Tumor-bearing mice were injected with anti-CD40 mAb intraperitoneally once a week at the indicated doses. Data were analyzed using the log-rank test.

Assay [2] has as its system IM-9 tumor cells. Briefly: IM-9 multiple myeloma xenograft, staged subcutaneous model. The assay is classed as in vivo, SCID mice. On the procedure:
SCID mice were inoculated subcutaneously with IM-9 tumor cells (a human multiple myeloma cell line expressing both CD40 and CD20) in 50% […]™ at 5×10^6 cells per mouse. In unstaged models, treatment was initiated one day after tumor implantation. In staged models, treatment was initiated when tumor volume reached 150-200 mm^3. […] Data were analyzed using the log-rank test.

In assay [3] the test system is Namalwa tumors. Description: Staged human NHL Namalwa xenograft model. The assay is classed as in vivo, T cell-deficient nude mice. The note with it: CHIR-12.12 1 mg/kg ip once a week for 4 weeks; IL-2 0.5 mg/kg sc daily for 8 days; N=10 mice/group. The source says: Therefore, the component of these mAbs' anti-tumor activity based on blocking the tumor proliferation/survival signal is not expected to contribute to anti-tumore efficacy in these models.
To ensure consistent tumor growth, T cell-deficient nude mice were whole-body irradiated at 3 Gy to further suppress the immune system one day before tumor inoculation. Tumor cells were inoculated subcutaneously in the right flank at 5×10^6 cells per mouse. Treatment was initiated when tumor volume reached about 100-200 mm^3 (about 7 days after tumor inoculation). […] Tumor volumes were recorded twice a week. Data were analyzed using ANOVA.
A general note: A xenograft is tissue or cells of one species grown in another, often human tumour cells in immunodeficient mice.

In the case of `CC(C)C[C@H](NC(=O)[C@H](Cc1ccccc1)NC(=O)c1cnccn1)B(O)O` [bortezomib], in assay [1], the “outcome of treated group” value is “euthanized between day 18 and day 26”. Moreover, the tumor growth inhibition entry is recorded as “did not inhibit tumor growth” in assay [2] (0.5 mg/kg twice a week) and 30% in assay [2] (MTD 1 mg/kg twice a week).
In the case of “IL-2: IL-2 used in the xenograft example; b966 says des-alanyl-1, serine-125 human IL-2 is used in the examples”, the “growth of Namalwa tumors, single agent” value in assay [3] was “inhibited the growth of Namalwa tumors”.
